From US10040838B2, “CRHR2 peptide agonists and uses thereof” (JANSSEN PHARMACEUTICA NV, priority 2008, dated 2018)
Residues, ends and D or L forms follow the SMILES beside them. No end group written: not given here. *: point of attachment. Succinimide(1-Et,3-yl) = CCN1C(=O)CC(*)C1=O

Target: T1, human CRHR2 (Homo sapiens, UniProt Q13324)
T1 construct: expressed in transfected cells
T1 sequence (Q13324 1-411): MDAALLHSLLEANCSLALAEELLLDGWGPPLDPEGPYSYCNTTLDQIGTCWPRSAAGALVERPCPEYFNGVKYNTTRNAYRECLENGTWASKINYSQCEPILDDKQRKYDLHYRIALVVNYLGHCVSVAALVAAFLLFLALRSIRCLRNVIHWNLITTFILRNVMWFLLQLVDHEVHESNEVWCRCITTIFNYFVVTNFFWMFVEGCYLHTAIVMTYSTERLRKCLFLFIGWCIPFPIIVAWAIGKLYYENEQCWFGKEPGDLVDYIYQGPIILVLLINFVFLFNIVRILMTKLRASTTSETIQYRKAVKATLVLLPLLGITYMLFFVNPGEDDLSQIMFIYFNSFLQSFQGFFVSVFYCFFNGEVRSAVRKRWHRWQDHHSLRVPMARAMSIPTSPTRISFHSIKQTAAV
Experiment: cAMP assay in h-CRHR2 transfected SK-N-MC cells
Format: cell-based
Details: Table 13; h-SCP control pA50 minus test compound pA50 within same assay batch
In short: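 Intracellular cAMP was read by competition with [125I]-cAMP for an anti-cAMP antibody after HCl lysis of human CRHR2-transfected SK-N-MC cells. Cells had been exposed to peptide, 1 pM to 10 μM, for 60 min at 37 °C in IBMX (10 μM) buffer. A50 and pA50 came from Hill fits; Log DR was computed against h-SCP within each batch.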

Row | Molecule | Log DR
1 | CC[C@H](C)[C@H](NC(=O)[C@H](CCC(N)=O)NC(=O)[C@H](C)NC(=O)[C@H](CCSC)NC(=O)[C@H](CC(C)C)NC(=O)[C@H](Cc1c[nH]cn1)NC(=O)[C@H](C)NC(=O)[C@H](CC(N)=O)NC(=O)[C@H](C)NC(=O)[C@H](C)NC(=O)[C@H](C)NC(=O)[C@H](CCC(N)=O)NC(=O)[C@H](C)NC(=O)[C@H](CCCNC(=N)N)NC(=O)[C@H](CC(C)C)NC(=O)[C@H](CC(N)=O)NC(=O)[C@H](CCCCN)NC(=O)[C@H](C)NC(=O)[C@H](CCCCN)NC(=O)[C@H](C)NC(=O)[C@@H](NC(=O)[C@H](CSC1CC(=O)N(CC)C1=O)NC(=O)[C@H](Cc1ccccc1)NC(=O)[C@H](CC(C)C)NC(=O)[C@H](CC(C)C)NC(=O)[C@H](CC(N)=O)NC(=O)[C@H](CCSC)NC(=O)[C@@H](NC(=O)[C@H](CC(N)=O)NC(=O)[C@@H](NC(=O)[C@@H]1CCCN1C(=O)[C@@H](NC(=O)[C@H](CC(=O)O)NC(=O)[C@H](CC(C)C)NC(=O)[C@H](CO)NC(=O)[C@H](CC(C)C)NC(=O)[C@@H](NC(=O)[C@H](Cc1ccccc1)NC(=O)[C@H](CCCCN)NC(=O)[C@@H](N)[C@@H](C)O)[C@@H](C)O)C(C)C)[C@@H](C)O)[C@@H](C)CC)[C@@H](C)CC)C(N)=O (stereo partly shown) [SEQ ID NO: 52, TKFTL SLDVP TNIMN LLFC(-NES)I AKAKN LRAQA AANAH LMAQI-NH2] (H-TKFTLSLDVPTNIMNLLFC(Succinimide(1-Et,3-yl))IAKAKNLRAQAAANAHLMAQI-NH2; N-terminus assumed) | 0.05
2 | TKFTLSLDVPTNIMNLLFNIAKAKNLRACAAANAHLMAQI-NH2 [SEQ ID NO: 30, TKFTLSLDVPTNIMNLLFNIAKAKNLRACAAANAHLMAQI-NH2] | 1.28
3 | TKFTLSLDVPTNIMNLLFNIAKAKNLRAQCAANAHLMAQI-NH2 [SEQ ID NO: 31, TKFTLSLDVPTNIMNLLFNIAKAKNLRAQCAANAHLMAQI-NH2] | 1.61
4 | CC[C@H](C)[C@H](NC(=O)[C@H](CCC(N)=O)NC(=O)[C@H](C)NC(=O)[C@H](CCSC)NC(=O)[C@H](CC(C)C)NC(=O)[C@H](Cc1c[nH]cn1)NC(=O)[C@H](C)NC(=O)[C@H](CSC1CC(=O)N(CC)C1=O)NC(=O)[C@H](C)NC(=O)[C@H](C)NC(=O)[C@H](C)NC(=O)[C@H](CCC(N)=O)NC(=O)[C@H](C)NC(=O)[C@H](CCCNC(=N)N)NC(=O)[C@H](CC(C)C)NC(=O)[C@H](CC(N)=O)NC(=O)[C@H](CCCCN)NC(=O)[C@H](C)NC(=O)[C@H](CCCCN)NC(=O)[C@H](C)NC(=O)[C@@H](NC(=O)[C@H](CC(N)=O)NC(=O)[C@H](Cc1ccccc1)NC(=O)[C@H](CC(C)C)NC(=O)[C@H](CC(C)C)NC(=O)[C@H](CC(N)=O)NC(=O)[C@H](CCSC)NC(=O)[C@@H](NC(=O)[C@H](CC(N)=O)NC(=O)[C@@H](NC(=O)[C@@H]1CCCN1C(=O)[C@@H](NC(=O)[C@H](CC(=O)O)NC(=O)[C@H](CC(C)C)NC(=O)[C@H](CO)NC(=O)[C@H](CC(C)C)NC(=O)[C@@H](NC(=O)[C@H](Cc1ccccc1)NC(=O)[C@H](CCCCN)NC(=O)[C@@H](N)[C@@H](C)O)[C@@H](C)O)C(C)C)[C@@H](C)O)[C@@H](C)CC)[C@@H](C)CC)C(N)=O (stereo partly shown) [SEQ ID NO: 44, TKFTLSLDVPTNIMNLLFNIAKAKNLRAQAAAC(-NES)AH LMAQI-NH2] (H-TKFTLSLDVPTNIMNLLFNIAKAKNLRAQAAAC(Succinimide(1-Et,3-yl))AHLMAQI-NH2; N-terminus assumed) | ~1.97
5 | TKFTLSLDVPTNIMNLCFNIAKAKNLRAQAAANAHLMAQI-NH2 [SEQ ID NO: 18, TKFTLSLDVPTNIMNLCFNIAKAKNLRAQAAANAHLMAQI-NH2] | 1.11
6 | CC[C@H](C)[C@H](NC(=O)[C@H](CCC(N)=O)NC(=O)[C@H](C)NC(=O)[C@H](CCSC)NC(=O)[C@H](CC(C)C)NC(=O)[C@H](Cc1c[nH]cn1)NC(=O)[C@H](C)NC(=O)[C@H](CC(N)=O)NC(=O)[C@H](C)NC(=O)[C@H](C)NC(=O)[C@H](C)NC(=O)[C@H](CCC(N)=O)NC(=O)[C@H](C)NC(=O)[C@H](CCCNC(=N)N)NC(=O)[C@H](CSC1CC(=O)N(CC)C1=O)NC(=O)[C@H](CC(N)=O)NC(=O)[C@H](CCCCN)NC(=O)[C@H](C)NC(=O)[C@H](CCCCN)NC(=O)[C@H](C)NC(=O)[C@@H](NC(=O)[C@H](CC(N)=O)NC(=O)[C@H](Cc1ccccc1)NC(=O)[C@H](CC(C)C)NC(=O)[C@H](CC(C)C)NC(=O)[C@H](CC(N)=O)NC(=O)[C@H](CCSC)NC(=O)[C@@H](NC(=O)[C@H](CC(N)=O)NC(=O)[C@@H](NC(=O)[C@@H]1CCCN1C(=O)[C@@H](NC(=O)[C@H](CC(=O)O)NC(=O)[C@H](CC(C)C)NC(=O)[C@H](CO)NC(=O)[C@H](CC(C)C)NC(=O)[C@@H](NC(=O)[C@H](Cc1ccccc1)NC(=O)[C@H](CCCCN)NC(=O)[C@@H](N)[C@@H](C)O)[C@@H](C)O)C(C)C)[C@@H](C)O)[C@@H](C)CC)[C@@H](C)CC)C(N)=O (stereo partly shown) [SEQ ID NO: 48, TKFTLSLDVPTNIMNLLFNIAKAKNC(-NES)RAQA AANAH LMAQI-NH2] (H-TKFTLSLDVPTNIMNLLFNIAKAKNC(Succinimide(1-Et,3-yl))RAQAAANAHLMAQI-NH2; N-terminus assumed) | 0.03
7 | TKFTLSLDVPTNIMNLLFNIAKAKNLRAQAAANAHCMAQI-NH2 [SEQ ID NO: 37, TKFTLSLDVPTNIMNLLFNIAKAKNLRAQAAANAHCMAQI-NH2] | 1.05
8 | TKFTLSLDVPTNIMNLLFNIACAKNLRAQAAANAHLMAQI-NH2 [SEQ ID NO: 23, TKFTLSLDVPTNIMNLLFNIACAKNLRAQAAANAHLMAQI-NH2] | 1.13
9 | TKFTLSLDVPTNIMCLLFNIAKAKNLRAQAAANAHLMAQI-NH2 [SEQ ID NO: 16, TKFTLSLDVPTNIMCLLFNIAKAKNLRAQAAANAHLMAQI-NH2] | 0.76
10 | CC[C@H](C)[C@H](NC(=O)[C@H](CCC(N)=O)NC(=O)[C@H](C)NC(=O)[C@H](CCSC)NC(=O)[C@H](CC(C)C)NC(=O)[C@H](Cc1c[nH]cn1)NC(=O)[C@H](C)NC(=O)[C@H](CC(N)=O)NC(=O)[C@H](C)NC(=O)[C@H](C)NC(=O)[C@H](C)NC(=O)[C@H](CCC(N)=O)NC(=O)[C@H](C)NC(=O)[C@H](CCCNC(=N)N)NC(=O)[C@H](CC(C)C)NC(=O)[C@H](CSC1CC(=O)N(CC)C1=O)NC(=O)[C@H](CCCCN)NC(=O)[C@H](C)NC(=O)[C@H](CCCCN)NC(=O)[C@H](C)NC(=O)[C@@H](NC(=O)[C@H](CC(N)=O)NC(=O)[C@H](Cc1ccccc1)NC(=O)[C@H](CC(C)C)NC(=O)[C@H](CC(C)C)NC(=O)[C@H](CC(N)=O)NC(=O)[C@H](CCSC)NC(=O)[C@@H](NC(=O)[C@H](CC(N)=O)NC(=O)[C@@H](NC(=O)[C@@H]1CCCN1C(=O)[C@@H](NC(=O)[C@H](CC(=O)O)NC(=O)[C@H](CC(C)C)NC(=O)[C@H](CO)NC(=O)[C@H](CC(C)C)NC(=O)[C@@H](NC(=O)[C@H](Cc1ccccc1)NC(=O)[C@H](CCCCN)NC(=O)[C@@H](N)[C@@H](C)O)[C@@H](C)O)C(C)C)[C@@H](C)O)[C@@H](C)CC)[C@@H](C)CC)C(N)=O (stereo partly shown) [SEQ ID NO: 49, TKFTLSLDVPTNIMNLLFNIAKAKC(-NES) LRAQA AANAH LMAQI-NH2] (H-TKFTLSLDVPTNIMNLLFNIAKAKC(Succinimide(1-Et,3-yl))LRAQAAANAHLMAQI-NH2; N-terminus assumed) | 0.11
11 | TKFTLSLDVPTNIMNLLFNIAKAKNLRAQAAANCHLMAQI-NH2 [SEQ ID NO: 35, TKFTLSLDVPTNIMNLLFNIAKAKNLRAQAAANCHLMAQI-NH2] | 0.70
12 | TKFTLSLDVCTNIMNLLFNIAKAKNLRAQAAANAHLMAQI-NH2 [SEQ ID NO: 11, TKFTLSLDVCTNIMNLLFNIAKAKNLRAQAAANAHLMAQI-NH2] | 0.82
13 | TKFTLSLDVPTNIMNLLFNIAKAKNLRAQAACNAHLMAQI-NH2 [SEQ ID NO: 33, TKFTLSLDVPTNIMNLLFNIAKAKNLRAQAACNAHLMAQI-NH2] | 0.45
14 | TCFTLSLDVPTNIMNLLFNIAKAKNLRAQAAANAHLMAQI-NH2 [SEQ ID NO: 3, TCFTLSLDVPTNIMNLLFNIAKAKNLRAQAAANAHLMAQI-NH2] | 0.72
15 | TKFTLSLDVPTNIMNLLFNIAKCKNLRAQAAANAHLMAQI-NH2 [SEQ ID NO: 24, TKFTLSLDVPTNIMNLLFNIAKCKNLRAQAAANAHLMAQI-NH2] | 0.74
16 | TKFTLSLDVPTNIMNLLFNIAKAKNLRAQAAANAHLMAQC-NH2 [SEQ ID NO: 41, TKFTLSLDVPTNIMNLLFNIAKAKNLRAQAAANAHLMAQC-NH2] | 2.07
17 | TKFTLSLDVPTNICNLLFNIAKAKNLRAQAAANAHLMAQI-NH2 [SEQ ID NO: 15, TKFTLSLDVPTNICNLLFNIAKAKNLRAQAAANAHLMAQI-NH2] | 0.90

Same assay, conditions: Table 14

Row | Molecule | pA50
18 | TKFTLSLDVPTNIMNLLFNIAKAKNLRC(-IA-PEG MW20000)QA AANAH LMAQI-NH2 (TKFTLSLDVPTNIMNLLFNIAKAKNLRC(IA‑PEG 20 kDa)QAAANAHLMAQI-NH2) [SEQ ID NO: 102] | 8.15

Same assay, conditions: Table 14; % of the maximum response obtained to h-SCP

Row | Molecule | αmax
19 | TKFTLSLDVPTNIMNLLFNIAKAKNLRC(-IA-PEG MW20000)QA AANAH LMAQI-NH2 (TKFTLSLDVPTNIMNLLFNIAKAKNLRC(IA‑PEG 20 kDa)QAAANAHLMAQI-NH2) [SEQ ID NO: 102] | 111.1%

Same assay, conditions: Table 14; Hill slope

Row | Molecule | nH
20 | TKFTLSLDVPTNIMNLLFNIAKAKNLRC(-IA-PEG MW20000)QA AANAH LMAQI-NH2 (TKFTLSLDVPTNIMNLLFNIAKAKNLRC(IA‑PEG 20 kDa)QAAANAHLMAQI-NH2) [SEQ ID NO: 102] | 1.05

Same assay, conditions: in the presence of 100 nM anti-sauvagine-30; maximal response constrained to 100%

Row | Molecule | pA50 approximate value
21 | TKFTLSLDVPTNIMNLLFNIAKAKNLRC(-IA-PEG MW20000)QA AANAH LMAQI-NH2 (TKFTLSLDVPTNIMNLLFNIAKAKNLRC(IA‑PEG 20 kDa)QAAANAHLMAQI-NH2) [SEQ ID NO: 102] | ~6.89

Same assay, conditions: tested as antagonists of h-SCP at 10 μM; read-out: receptor affinity (KA)

Row | Molecule | Kd
22 | LDVPTNIMNLLFNIAKAKNLRAQAAANAHLMAQI-NH2 [SEQ ID NO: 111, LDVPTNIMNLLFNIAKAKNLRAQAAANAHLMAQI-NH2] | < 10 µM
